Measurements reported in ChEMBL document CHEMBL1155886, “Discovery of piperidine-aryl urea-based stearoyl-CoA desaturase 1 inhibitors” (Bioorg Med Chem Lett, 2008).
The source made the active and inactive calls. The rule behind the calls is not given here.

Key:
[1] = Inhibition of human recombinant SCD1 expressed in baculovirus/insect cell system
[2] = molecular target: T1, Acyl-CoA desaturase 1 (Mus musculus, UniProt P13516); assay: Inhibition of mouse SCD1
T1 sequence (P13516 whole entry): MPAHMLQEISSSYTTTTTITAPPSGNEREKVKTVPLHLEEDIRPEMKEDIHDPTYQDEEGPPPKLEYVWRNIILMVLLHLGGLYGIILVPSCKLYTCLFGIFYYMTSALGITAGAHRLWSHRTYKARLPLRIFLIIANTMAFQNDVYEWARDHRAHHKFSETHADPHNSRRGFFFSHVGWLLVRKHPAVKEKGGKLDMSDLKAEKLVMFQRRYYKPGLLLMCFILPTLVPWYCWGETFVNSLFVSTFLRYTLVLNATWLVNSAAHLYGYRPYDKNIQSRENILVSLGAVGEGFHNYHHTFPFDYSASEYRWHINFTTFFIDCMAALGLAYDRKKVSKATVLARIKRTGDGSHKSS

[3] = species on record: Mus musculus; assay: Reduction in triglyceride desaturation index in ob/ob mouse; assay type: functional, organism-based
[4] = test system: Mus musculus; assay: Reduction in desaturation index in plasma of ob/ob mouse assessed as ratio of C16:0/C16:1n7 at 10 mg/kg bid; assay type: functional, organism-based; design: dose 10 mg/kg
[5] = test system: Mus musculus; assay: Reduction in desaturation index in plasma of ob/ob mouse assessed as ratio of C18:0/C18:1n9 at 10 mg/kg bid; assay type: functional, organism-based; design: dose 10 mg/kg
[6] = molecular target: Cytochrome b5 (Homo sapiens) (UniProt P00167); assay: Inhibition of cytochrome b5 at >10 uM
Sequence of Cytochrome b5 (Homo sapiens) (P00167 whole entry): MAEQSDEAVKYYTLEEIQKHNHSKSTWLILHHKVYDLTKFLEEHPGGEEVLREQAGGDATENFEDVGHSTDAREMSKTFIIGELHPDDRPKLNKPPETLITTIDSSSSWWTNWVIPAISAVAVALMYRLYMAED

[7] = Clearance in mouse plasma; assay type: ADME, organism-based
[8] = Oral bioavailability in mouse; assay type: ADME, organism-based; conditions: in vivo
[9] = Volume of distribution at steady state in mouse; assay type: ADME, organism-based; conditions: in vivo, read-out: Vdss
[10] = Inhibition of cytochrome b5 reductase at >10 uM
[11] = test system: Mus musculus; assay: Reduction in desaturation index in liver of ob/ob mouse assessed as ratio of C18:0/C18:1n9 at 10 mg/kg bid; assay type: functional, organism-based; design: dose 10 mg/kg
[12] = test system: Mus musculus; assay: Reduction in desaturation index in liver of ob/ob mouse assessed as ratio of C16:0/C16:1n7 at 10 mg/kg bid; assay type: functional, organism-based; design: dose 10 mg/kg
[13] = test system: Mus musculus; assay: Reduction in desaturation index in plasma of ob/ob mouse assessed as ratio of C18:0/C18:1n9 at 30 mg/kg bid; assay type: functional, organism-based; design: dose 30 mg/kg
[14] = test system: Mus musculus; assay: Reduction in desaturation index in liver of ob/ob mouse assessed as ratio of C18:0/C18:1n9 at 30 mg/kg bid; assay type: functional, organism-based; design: dose 30 mg/kg
[15] = test system: Mus musculus; assay: Reduction in desaturation index in plasma of ob/ob mouse assessed as ratio of C16:0/C16:1n7 at 30 mg/kg bid; assay type: functional, organism-based; design: dose 30 mg/kg
[16] = test system: Mus musculus; assay: Reduction in desaturation index in liver of ob/ob mouse assessed as ratio of C16:0/C16:1n7 at 30 mg/kg bid; assay type: functional, organism-based; design: dose 30 mg/kg

SMILES | IC50 [1] | IC50 [2] | other results
CNC(=O)c1cccc(NC(=O)N2CCC(Oc3ccc(F)cc3Cl)CC2)c1 | 58 nM | 6 nM | –
CNC(=O)c1cccc(NC(=O)N2CCC(Oc3ccccc3Cl)CC2)c1 | 37 nM | < 4 nM | Activity [3]: Dose-dependent effect; Activity [4]: Active; Activity [5]: Active; Activity [6]: inactive; clearance [7]: 6.67 mL/min/kg; bioavailability [8]: 92%; Vd [9]: 0.4 L/kg; Activity [10]: inactive; Activity [11]: Active; Activity [12]: Active
CNC(=O)c1cccc(NC(=O)N2CCC(Oc3ccccc3C)CC2)c1 | 120 nM | 17 nM | –
NC(=O)c1cccc(NC(=O)N2CCC(Oc3ccccc3Cl)CC2)c1 | 59 nM | 10 nM | –
CC(C)NC(=O)c1cccc(NC(=O)N2CCC(Oc3ccccc3Cl)CC2)c1 | 7100 nM | 810 nM | –
CNC(=O)c1cccc(NC(=O)N2CCN(C(=O)c3ccccc3C(F)(F)F)CC2)c1 | – | 700 nM | –
CNC(=O)c1ccc(NC(=O)N2CCN(C(=O)c3ccccc3C(F)(F)F)CC2)cc1 | – | > 10000 nM | –
CNC(=O)c1cccc(NC(=O)N2CCC(Oc3cccc(Cl)c3)CC2)c1 | 270 nM | 20 nM | –
CNC(=O)c1cccc(NC(=O)N2CCC(Oc3cc(F)ccc3Cl)CC2)c1 | 18 nM | < 4 nM | –
CNC(=O)c1cccc(NC(=O)N2CCC(Oc3ccccc3F)CC2)c1 | 680 nM | 98 nM | Activity [13]: Active; Activity [14]: Active; Activity [15]: Active; Activity [16]: Active
CNC(=O)c1cccc(NC(=O)N2CCC(Oc3ccccc3OC)CC2)c1 | 1900 nM | 81 nM | –
O=C(Nc1cccc(-c2ncc[nH]2)c1)N1CCC(Oc2ccccc2Cl)CC1 | 360 nM | 10 nM | –
O=C(Nc1ccccc1)N1CCC(Oc2ccccc2Cl)CC1 | 7500 nM | 590 nM | –
CC(C)(C)NC(=O)c1cccc(NC(=O)N2CCC(Oc3ccccc3Cl)CC2)c1 | > 10000 nM | > 10000 nM | –
CNC(=O)c1cccc(NC(=O)N2CCC(Oc3ccccc3Br)CC2)c1 | 30 nM | < 4 nM | –
CCNC(=O)c1cccc(NC(=O)N2CCC(Oc3ccccc3Cl)CC2)c1 | 150 nM | 8 nM | –
Cc1noc(-c2cccc(NC(=O)N3CCC(Oc4ccccc4Cl)CC3)c2)n1 | 110 nM | 8 nM | –
CNC(=O)c1cccc(NC(=O)N2CCC(Oc3ccccc3)CC2)c1 | 4000 nM | 370 nM | –
CNC(=O)c1cccc(NC(=O)N2CCC(Oc3c(F)cccc3Cl)CC2)c1 | 9700 nM | 330 nM | –
